# Calls of active or inactive are those of the source. No rule for the calls is given here.
# System: rodent lifetime carcinogenesis bioassay, tumor incidence TD50
# Assay: carcinogenic potency in animals, long-term in vivo studies, CPDB compilation (AID 1745844)
compound,measurement,setting,value
C=CC(N)=O,TD50,"rat, strain Fischer 344, females, in drinking water, site: brain, lesion: astrocytoma, dosed 104 weeks, study length 104 weeks",38.8 mg/kg/day
same,TD50,"rat, strain Fischer 344, females, in drinking water, site: brain, lesion: astrocytoma, dosed 107 weeks, study length 107 weeks",71.8 mg/kg/day
same,TD50,"rat, strain Fischer 344, females, in drinking water, site: brain, lesion: oligodendroglioma, dosed 104 weeks, study length 104 weeks",259 mg/kg/day
same,TD50,"rat, strain Fischer 344, females, in drinking water, site: central nervous system, lesion: astrocytoma, dosed 104 weeks, study length 104 weeks",19.5 mg/kg/day
same,TD50,"rat, strain Fischer 344, females, in drinking water, site: central nervous system, lesion: glial tumors (oligodendroglioma and astrocytoma), dosed 104 weeks, study length 104 weeks",17.3 mg/kg/day
same,TD50,"rat, strain Fischer 344, females, in drinking water, site: central nervous system, lesion: glial tumors (oligodendroglioma and astrocytoma), dosed 107 weeks, study length 107 weeks",57.2 mg/kg/day
same,TD50,"rat, strain Fischer 344, females, in drinking water, site: clitoral gland, lesion: adenoma, dosed 104 weeks, study length 104 weeks",19 mg/kg/day
same,TD50,"rat, strain Fischer 344, females, in drinking water, site: mammary gland, lesion: adenocarcinoma, dosed 104 weeks, study length 104 weeks",17.6 mg/kg/day
same,TD50,"rat, strain Fischer 344, females, in drinking water, site: mammary gland, lesion: adenocarcinoma, dosed 107 weeks, study length 107 weeks",100 mg/kg/day
same,TD50,"rat, strain Fischer 344, females, in drinking water, site: mammary gland, lesion: benign tumor, dosed 104 weeks, study length 104 weeks",4.21 mg/kg/day
same,TD50,"rat, strain Fischer 344, females, in drinking water, site: mammary gland, lesion: fibroadenoma, dosed 104 weeks, study length 104 weeks",8.73 mg/kg/day
same,TD50,"rat, strain Fischer 344, females, in drinking water, site: mammary gland, lesion: fibroadenoma, dosed 107 weeks, study length 107 weeks",9.33 mg/kg/day
same,TD50,"rat, strain Fischer 344, females, in drinking water, site: mammary gland, lesion: several types, types named in the paper, dosed 107 weeks, study length 107 weeks",8.18 mg/kg/day
same,TD50,"rat, strain Fischer 344, females, in drinking water, site: mammary tissue, wider than the gland, lesion: fibroma, dosed 104 weeks, study length 104 weeks",20.9 mg/kg/day
same,TD50,"rat, strain Fischer 344, females, in drinking water, site: oral cavity, lesion: squamous-cell papilloma, dosed 104 weeks, study length 104 weeks",16.2 mg/kg/day
same,TD50,"rat, strain Fischer 344, females, in drinking water, site: spinal cord, lesion: astrocytoma, dosed 104 weeks, study length 104 weeks",40.3 mg/kg/day
same,TD50,"rat, strain Fischer 344, females, in drinking water, site: spinal cord, lesion: astrocytoma, dosed 107 weeks, study length 107 weeks",210 mg/kg/day
same,TD50,"rat, strain Fischer 344, females, in drinking water, site: thyroid follicle, lesion: several types, types named in the paper, dosed 104 weeks, study length 104 weeks",19.1 mg/kg/day
same,TD50,"rat, strain Fischer 344, females, in drinking water, site: thyroid follicle, lesion: several types, types named in the paper, dosed 107 weeks, study length 107 weeks",8.92 mg/kg/day
same,TD50,"rat, strain Fischer 344, females, in drinking water, site: thyroid gland, lesion: follicular adenocarcinoma, dosed 104 weeks, study length 104 weeks",39.5 mg/kg/day
same,TD50,"rat, strain Fischer 344, females, in drinking water, site: thyroid gland, lesion: follicular adenocarcinoma, dosed 107 weeks, study length 107 weeks",42.8 mg/kg/day
same,TD50,"rat, strain Fischer 344, females, in drinking water, site: thyroid gland, lesion: follicular-cell adenoma, dosed 107 weeks, study length 107 weeks",11.7 mg/kg/day
same,TD50,"rat, strain Fischer 344, females, in drinking water, site: uterus, lesion: adenocarcinoma, dosed 104 weeks, study length 104 weeks",26.5 mg/kg/day
same,TD50,"rat, strain Fischer 344, males, in drinking water, site: adrenal gland, lesion: pheochromocytoma, benign, dosed 104 weeks, study length 104 weeks",18.1 mg/kg/day
same,TD50,"rat, strain Fischer 344, males, in drinking water, site: brain, lesion: astrocytoma, dosed 104 weeks, study length 104 weeks",82.6 mg/kg/day
same,TD50,"rat, strain Fischer 344, males, in drinking water, site: brain, lesion: astrocytoma, dosed 107 weeks, study length 107 weeks",76.8 mg/kg/day
same,TD50,"rat, strain Fischer 344, males, in drinking water, site: brain, lesion: oligodendroglioma, dosed 104 weeks, study length 104 weeks",339 mg/kg/day
same,TD50,"rat, strain Fischer 344, males, in drinking water, site: central nervous system, lesion: astrocytoma, dosed 104 weeks, study length 104 weeks",23.5 mg/kg/day
same,TD50,"rat, strain Fischer 344, males, in drinking water, site: central nervous system, lesion: glial tumors (oligodendroglioma and astrocytoma), dosed 104 weeks, study length 104 weeks",24.8 mg/kg/day
same,TD50,"rat, strain Fischer 344, males, in drinking water, site: central nervous system, lesion: glial tumors (oligodendroglioma and astrocytoma), dosed 107 weeks, study length 107 weeks",48.9 mg/kg/day
same,TD50,"rat, strain Fischer 344, males, in drinking water, site: spinal cord, lesion: astrocytoma, dosed 104 weeks, study length 104 weeks",39.7 mg/kg/day
same,TD50,"rat, strain Fischer 344, males, in drinking water, site: spinal cord, lesion: astrocytoma, dosed 107 weeks, study length 107 weeks",82.5 mg/kg/day
same,TD50,"rat, strain Fischer 344, males, in drinking water, site: spleen, lesion: leukemia, dosed 104 weeks, study length 104 weeks",45.8 mg/kg/day
same,TD50,"rat, strain Fischer 344, males, in drinking water, site: thyroid follicle, lesion: several types, types named in the paper, dosed 107 weeks, study length 107 weeks",7.35 mg/kg/day
same,TD50,"rat, strain Fischer 344, males, in drinking water, site: thyroid gland, lesion: follicular adenocarcinoma, dosed 107 weeks, study length 107 weeks",77.2 mg/kg/day
same,TD50,"rat, strain Fischer 344, males, in drinking water, site: thyroid gland, lesion: follicular-cell adenoma, dosed 104 weeks, study length 104 weeks",13.5 mg/kg/day
same,TD50,"rat, strain Fischer 344, males, in drinking water, site: thyroid gland, lesion: follicular-cell adenoma, dosed 107 weeks, study length 107 weeks",7.49 mg/kg/day
same,TD50,"rat, strain Fischer 344, males, in drinking water, site: tunica vaginalis, lesion: mesothelioma, benign, dosed 107 weeks, study length 107 weeks",9.45 mg/kg/day
same,TD50,"rat, strain Fischer 344, males, in drinking water, site: tunica vaginalis, lesion: mesothelioma, malignant, dosed 104 weeks, study length 104 weeks",1.75 mg/kg/day
CCCCCCc1ccc(O)cc1O,carcinogen call,"mouse, strain B6C3F1, females, by gavage, site: any site (literature study), lesion: several types, types named in the paper, dosed 102 weeks, study length 104 weeks",negative (inactive)
same,TD50,"mouse, strain B6C3F1, males, by gavage, site: Harderian gland, lesion: adenoma, NOS + carcinoma, NOS, dosed 102 weeks, study length 104 weeks",368 mg/kg/day
same,TD50,"mouse, strain B6C3F1, males, by gavage, site: adrenal medulla, lesion: pheochromocytoma, dosed 102 weeks, study length 104 weeks",519 mg/kg/day
same,carcinogen call,"rat, strain Fischer 344, females, by gavage, site: any site (literature study), lesion: several types, types named in the paper, dosed 103 weeks, study length 104 weeks",negative (inactive)
same,TD50,"rat, strain Fischer 344, females, by gavage, site: liver, lesion: hepatocellular adenoma + hepatocellular carcinoma + neoplastic nodule, dosed 103 weeks, study length 104 weeks",128000 mg/kg/day
same,TD50,"rat, strain Fischer 344, males, by gavage, site: any site (literature study), lesion: several types, types named in the paper, dosed 103 weeks, study length 104 weeks",615 mg/kg/day (inactive)
same,TD50,"rat, strain Fischer 344, males, by gavage, site: liver, lesion: hepatocellular adenoma + hepatocellular carcinoma + neoplastic nodule, dosed 103 weeks, study length 104 weeks",1530 mg/kg/day
O=NN(CC(=O)O)CC(=O)O,TD50,"rat, strain MRC, females, in drinking water, site: any site (literature study), lesion: several types, types named in the paper, dosed 72 weeks, study length 104 weeks",63.9 mg/kg/day (inactive)
same,TD50,"rat, strain MRC, males, in drinking water, site: any site (literature study), lesion: several types, types named in the paper, dosed 72 weeks, study length 104 weeks",76 mg/kg/day (inactive)
same,TD50,"rat, strain MRC, males, in drinking water, site: pituitary gland, lesion: one or several types, types not named, dosed 72 weeks, study length 104 weeks",66.9 mg/kg/day (inactive)

# Reference: PubChem BioAssay AID1745844 (Carcinogenic Potency Database (CPDB), 2022)
